Assay results as given in ChEMBL document CHEMBL4017472, “New modified 2-aminobenzimidazole nucleosides: Synthesis and evaluation of their activity against herpes simplex virus type 1” (Bioorg Med Chem Lett, 2017).

Tests used:
[1] = system: Human alphaherpesvirus 1; experiment: Antiviral activity against HSV-1 L2/Rp-ACV/2 infected in African green monkey Vero E6 cells assessed as viral reproduction at 207 uM measured after 48 hrs post infection by gentian violet staining based plaque reduction assay (reference value: 6.05 +/- 0.1 log10PFU/ml); type: functional, Vero C1008
[2] = system: Human alphaherpesvirus 1; experiment: Antiviral activity against acyclovir and foscarnet-resistant HSV-1 L2 infected in African green monkey Vero E6 cells assessed as viral reproduction at 415 uM measured after 48 hrs post infection by gentian violet staining based plaque reduction assay (reference value: 5.92 +/- 0.11 log10PFU/ml); type: functional, Vero C1008
[3] = system: Human alphaherpesvirus 1; experiment: Antiviral activity against acyclovir-resistant HSV-1 L2 infected in African green monkey Vero E6 cells assessed as inhibition of viral reproduction measured after 48 hrs post infection by gentian violet staining based plaque reduction assay; type: functional; settings: Vero C1008
[4] = system: Human alphaherpesvirus 1; experiment: Antiviral activity against foscarnet-resistant HSV-1 F+ infected in African green monkey Vero E6 cells assessed as inhibition of viral reproduction measured after 48 hrs post infection by gentian violet staining based plaque reduction assay; type: functional; settings: Vero C1008
[5] = system: Human alphaherpesvirus 1; experiment: Antiviral activity against HSV-1 L2/Rp-ACV/2 infected in African green monkey Vero E6 cells assessed as viral reproduction at 104 uM measured after 48 hrs post infection by gentian violet staining based plaque reduction assay (reference value: 6.05 +/- 0.1 log10PFU/ml); type: functional, Vero C1008
[6] = system: Human alphaherpesvirus 1; experiment: Antiviral activity against acyclovir and foscarnet-resistant HSV-1 L2 infected in African green monkey Vero E6 cells assessed as viral reproduction at 104 uM measured after 48 hrs post infection by gentian violet staining based plaque reduction assay (reference value: 5.92 +/- 0.11 log10PFU/ml); type: functional, Vero C1008
[7] = system: Human alphaherpesvirus 1; experiment: Antiviral activity against HSV-1 L2 infected in African green monkey Vero E6 cells assessed as inhibition of viral reproduction measured after 48 hrs post infection by gentian violet staining based plaque reduction assay; type: functional; settings: Vero C1008
[8] = system: Human alphaherpesvirus 1; experiment: Antiviral activity against acyclovir-resistant HSV-1 L2 infected in African green monkey Vero E6 cells assessed as viral reproduction at 415 uM measured after 48 hrs post infection by gentian violet staining based plaque reduction assay (reference value: 5.95 +/- 0.03 log10PFU/ml); type: functional, Vero C1008
[9] = system: Human alphaherpesvirus 1; experiment: Antiviral activity against acyclovir and foscarnet-resistant HSV-1 L2 infected in African green monkey Vero E6 cells assessed as viral reproduction at 52 uM measured after 48 hrs post infection by gentian violet staining based plaque reduction assay (reference value: 5.92 +/- 0.11 log10PFU/ml); type: functional, Vero C1008
[10] = system: Human alphaherpesvirus 1; experiment: Antiviral activity against acyclovir-resistant HSV-1 L2 infected in African green monkey Vero E6 cells assessed as viral reproduction at 104 uM measured after 48 hrs post infection by gentian violet staining based plaque reduction assay (reference value: 5.95 +/- 0.03 log10PFU/ml); type: functional, Vero C1008
[11] = system: Human alphaherpesvirus 1; experiment: Antiviral activity against acyclovir and cidofovir-resistant HSV-1 L2 infected in African green monkey Vero E6 cells assessed as inhibition of viral reproduction measured after 48 hrs post infection by gentian violet staining based plaque reduction assay; type: functional; settings: Vero C1008
[12] = Selectivity index, ratio of MCC for African green monkey Vero E6 cells to IC50 for HSV-1 L2/Rp-ACV/2 infected in African green monkey Vero E6 cells; set-up: species or system Vero C1008
[13] = system: Human alphaherpesvirus 1; experiment: Potency index, ratio of maribavir IC50 to compound IC50 for HSV-1 L2 infected in African green monkey Vero E6 cells; type: functional, Vero C1008
[14] = system: Human alphaherpesvirus 1; experiment: Antiviral activity against HSV-1 L2/Rp-ACV/2 infected in African green monkey Vero E6 cells assessed as inhibition of viral reproduction measured after 48 hrs post infection by gentian violet staining based plaque reduction assay; type: functional; settings: Vero C1008
[15] = system: Human alphaherpesvirus 1; experiment: Antiviral activity against HSV-1 L2/Rp-ACV/2 infected in African green monkey Vero E6 cells assessed as reduction in virus-induced cytopathic effect; type: functional; settings: Human alphaherpesvirus 1, L2/Rp-ACV/2, Vero C1008
[16] = system: Human alphaherpesvirus 1; experiment: Antiviral activity against HSV-1 L2 infected in African green monkey Vero E6 cells assessed as viral reproduction at 104 uM measured after 48 hrs post infection by gentian violet staining based plaque reduction assay (reference value: 6.91 +/- 0.05 log10PFU/ml); type: functional, Vero C1008
[17] = system: Human alphaherpesvirus 1; experiment: Antiviral activity against HSV-1 L2 infected in African green monkey Vero E6 cells assessed as viral reproduction at 207 uM measured after 48 hrs post infection by gentian violet staining based plaque reduction assay (reference value: 6.91 +/- 0.05 log10PFU/ml); type: functional, Vero C1008
[18] = system: Human alphaherpesvirus 1; experiment: Antiviral activity against HSV-1 L2/Rp-ACV/2 infected in African green monkey Vero E6 cells assessed as viral reproduction at 52 uM measured after 48 hrs post infection by gentian violet staining based plaque reduction assay (reference value: 6.05 +/- 0.1 log10PFU/ml); type: functional, Vero C1008
[19] = system: Human alphaherpesvirus 1; experiment: Antiviral activity against acyclovir and cidofovir-resistant HSV-1 L2 infected in African green monkey Vero E6 cells assessed as viral reproduction at 104 uM measured after 48 hrs post infection by gentian violet staining based plaque reduction assay (reference value: 6.52 +/- 0.11 log10PFU/ml); type: functional, Vero C1008
[20] = system: Human alphaherpesvirus 1; experiment: Antiviral activity against foscarnet-resistant HSV-1 F+ infected in African green monkey Vero E6 cells assessed as viral reproduction at 415 uM measured after 48 hrs post infection by gentian violet staining based plaque reduction assay (reference value: 6.6 +/- 0.1 log10PFU/ml); type: functional, Vero C1008
[21] = system: Human alphaherpesvirus 1; experiment: Antiviral activity against HSV-1 L2/Rp-ACV/2 infected in African green monkey Vero E6 cells assessed as viral reproduction at 415 uM measured after 48 hrs post infection by gentian violet staining based plaque reduction assay (reference value: 6.05 +/- 0.1 log10PFU/ml); type: functional, Vero C1008
[22] = system: Human alphaherpesvirus 1; experiment: Antiviral activity against acyclovir-resistant HSV-1 L2 infected in African green monkey Vero E6 cells assessed as viral reproduction at 207 uM measured after 48 hrs post infection by gentian violet staining based plaque reduction assay (reference value: 5.95 +/- 0.03 log10PFU/ml); type: functional, Vero C1008
[23] = system: Human alphaherpesvirus 1; experiment: Antiviral activity against acyclovir and foscarnet-resistant HSV-1 L2 infected in African green monkey Vero E6 cells assessed as reduction in virus-induced cytopathic effect; type: functional; settings: Human alphaherpesvirus 1, L2, Vero C1008
[24] = Cytotoxicity against African green monkey Vero E6 cells measured after 3 days by trypan blue assay; type: cell-based, Vero C1008; settings: chlorocebus sabaeus
[25] = system: Human alphaherpesvirus 1; experiment: Potency index, ratio of ribavirin IC50 to compound IC50 for HSV-1 L2 infected in African green monkey Vero E6 cells; type: functional, Vero C1008
[26] = system: Human alphaherpesvirus 1; experiment: Antiviral activity against acyclovir-resistant HSV-1 L2 infected in African green monkey Vero E6 cells assessed as viral reproduction at 52 uM measured after 48 hrs post infection by gentian violet staining based plaque reduction assay (reference value: 5.95 +/- 0.03 log10PFU/ml); type: functional, Vero C1008
[27] = system: Human alphaherpesvirus 1; experiment: Antiviral activity against acyclovir and cidofovir-resistant HSV-1 L2 infected in African green monkey Vero E6 cells assessed as reduction in virus-induced cytopathic effect; type: functional; settings: Human alphaherpesvirus 1, L2, Vero C1008
[28] = system: Human alphaherpesvirus 1; experiment: Antiviral activity against acyclovir and cidofovir-resistant HSV-1 L2 infected in African green monkey Vero E6 cells assessed as viral reproduction at 207 uM measured after 48 hrs post infection by gentian violet staining based plaque reduction assay (reference value: 6.52 +/- 0.11 log10PFU/ml); type: functional, Vero C1008

Nc1nc2cc(F)c(F)cc2n1[C@@H]1O[C@H](CO)[C@@H](O)[C@H]1O
Activity [1]: 4.55 log10PFU/ml | Activity [2]: 4.02 log10PFU/ml | inhibition [3]: Dose-dependent effect | inhibition [4]: Dose-dependent effect | Activity [5]: 4.76 log10PFU/ml | Activity [6]: 4.8 log10PFU/ml | inhibition [7]: Dose-dependent effect | Activity [8]: 3.45 log10PFU/ml | Activity [9]: 5.4 log10PFU/ml | Activity [10]: 4.44 log10PFU/ml | inhibition [11]: Dose-dependent effect | Selectivity Index [12]: >32 | Ratio IC50 [13]: 8 | inhibition [14]: Dose-dependent effect | IC50 [15]: 104 µM | IC95 [15]: 830 µM | Activity [16]: 5.63 log10PFU/ml | Activity [17]: 5.16 log10PFU/ml | Activity [18]: 5.32 log10PFU/ml | Activity [19]: 5.39 log10PFU/ml | Activity [20]: 3.9 log10PFU/ml | Activity [21]: 4.06 log10PFU/ml | Activity [22]: 4.15 log10PFU/ml | IC50 [23]: 208 µM | IC95 [23]: 830 µM | MCC at 72 h [24]: > 3.32 mM | Ratio IC50 [25]: 4 | Activity [26]: 5.04 log10PFU/ml | IC50 [27]: 208 µM | IC95 [27]: 830 µM | Activity [28]: 5.06 log10PFU/ml
